Experimental data from patent US11590240B2, “Nano-fibular nanoparticle polymer-drug conjugate for sustained dermal delivery of retinoids” (Massachusetts Institute of Technology, priority 2015, dated 2023).

How the values were obtained:
[1] = Uptake, retention and penetration of ATRA in pig skin, Franz diffusion cell; type: in vitro ADME
Experimental: Uptake, retention, and penetration of ATRA in pig skin were investigated using a Franz diffusion cell as described and known in the art. Skin was harvested from the flanks of adult female Yorkshire pigs 1 hour after sacrifice with subcutaneous fat removed. Skin was sectioned and frozen at −80° C. for up to six months prior to use. Skin was prepared for diffusion experiments by thawing in PBS for one hour after which time all hair on the skin was shaven off. Test samples of skin were cut to 30 mm×30 mm square samples and placed into the diffusion cell such that the top of the dermis faced a 3 mL testing retention reservoir and the underside faced a 15 mL penetration reservoir. […]
Samples were placed into the retention reservoir at a concentration of 0.1 mg/mL and followed for up to 12 hours. ATRA concentration was evaluated in both the retention and penetration reservoirs every four hours during this period via UV absorbance measurements. […] For both groups, the penetration reservoir was filled with a hydroalcoholic solution so that the ATRA that could penetrate the skin would be soluble for UV absorbance measurement. […]
Samples to be tested were placed into the retention reservoir at a concentration of 0.1 mg/mL and followed for up to 12 hours. ATRA concentration was evaluated in both the retention and penetration reservoirs every four hours during this period via UV absorbance measurements. […]

[2] = Solubility of free ATRA and PATRA in different solutions (UV absorbance of supernatant); type: physicochemical
Experimental: Solubility was evaluated by bringing 2 mg/ml of ATRA either free or conjugated to PVA into equilibrium at room temperature for 1 hour, followed by centrifugation of the solution at 1,500 rpm for five minutes to remove undissolved precipitate. The supernatant from this process was then used for the testing of ATRA concentration via UV absorbance as previously described.

Balb/CJ mouse = assay: Irritation after topical application to mouse dermis (digital imaging, H&E histology); type: in vivo; conditions: for gross appearance of treated skin: 10 μM ATRA dosing equivalent, topical
Experimental: Mice used for the assessment of irritation were given each of the two different treatments on 1 cm^2 regions of their dorsum, these included PATRA, ATRA, PVA, and PBS. A total of twelve mice were used in this assessment. 50 μL of 10 μM ATRA solution was placed on two 1 cm^2 shaved areas on the flanks of a Balb/CJ mouse on either side of midline. PATRA (0.092 mg mL^−1) and PVA (0.089 mg mL^−1) concentrations were controlled for 10 μM ATRA dosing. These solutions were rubbed into the skin using a cotton-tipped applicator for 30 seconds.
Tissues were fixed in zinc fixative without formalin for 48 hours. The excised tissues were cut on center and then embedded cut-face down in paraffin. Sections were taken at the wound center and at one further level of 500 μm reaching a total of 1 mm sampling length through the application site. At each level an H&E slide was stained. Unstained slides were also taken for potential IHC analysis of the tissue. All sections were 5 μm thick. Image analysis was performed using Image J.
To investigate the relative irritative nature of PATRA in comparison to ATRA, each was tested on the flanks of mice. Irritation was evaluated by digital imaging of the application site of ATRA, PATRA, or control solutions for up to five days post-application as well as by histological evaluation of inflammation after 5 days. In brief, 50 μL of 10 μM ATRA solution was placed on a 1 cm^2 shaved area on the flank of a Balb/CJ mouse. PATRA (0.092 mg mL^−1) and PVA (0.089 mg mL^−1) concentrations were controlled for 10 μM ATRA dosing. This solution is rubbed into the skin using a cotton-tipped applicator for 30 seconds. Each mouse received one of the four different material solutions applied in two locations. Inflammation and dermal changes subsequent to ATRA application were evaluated by both by digital imaging and by H&E histology.

## CC1=C(/C=C/C(C)=C/C=C/C(C)=C/C(=O)O)C(C)(C)CCC1 [ATRA, All-trans retinoic acid]
[1]; 12 hours of exposure, 0.1 mg/mL in retention reservoir, room temperature
  fraction of ATRA accumulated within the treated skin: 1.9±0.9%
[1]; every four hours up to 12 hours
  ATRA in the receiving (penetration) reservoir, free ATRA versus PATRA: much higher level of ATRA accumulation at every time point tested
[2]; PBS 1× (pH7.4)
  solubility, in words: insoluble
[2]; deionized water
  solubility, in words: insoluble
Balb/CJ mouse; after 5 days
  stratum corneum (SC) and epidermal thickness, histology: Significantly increased
Balb/CJ mouse; five days post-application
  gross appearance of treated skin: still has a rash-like quality with a thick and calloused appearance
Balb/CJ mouse; three days post-application
  gross appearance of treated skin: begins to appear inflamed after three days
